The values below come from patent US20240199644A1, “Fused Ring Derivatives Useful as KRAS G12D Inhibitors” (JACOBIO PHARMACEUTICALS CO., LTD., priority 2021, published 2024).

For assay [1], the target named is GppNp-loaded HIS-KRAS(G12D, aa 1-169) / cRAF RBD (Homo sapiens (Human), UniProt P01116, G12D). The experiment in a line: GTP-KRAS and cRAF interaction assay. Type of assay: biochemical. To be noted: HTRF; 2.0 nM GppNp-loaded HIS-KRAS(G12D), 35 nM cRAF RBD, 100 μM GTP, 2 hours at 25° C. Here is the method: GppNp-loaded HIS-KRAS(G12D, aa 1-169) was pre-incubated with a compound in the presence of 200 μM GTP in a 384-well plate (Greiner) for 15 min, then cRAF RBD(GST tag, aa 50-132, CreativeBioMart), MAb Anti GST-d2 (Cisbio) and MAb Anti 6HIS-Tb cryptate Gold (Cisbio) were added to the assay wells (Final concentration: 2.0 nM GppNp-loaded HIS-KRAS(G12D), 100 μM GTP, 35 nM cRAF RBD, 1 μg/mL MAb Anti GST-d2, 52.5 ng/mL MAb Anti 6HIS-Tb cryptate Gold) and incubated for 2 hours at 25° C. Wells containing same percent of DMSO served as vehicle control, and wells without KRAS served as low control. HTRF signals were read on Tecan Spark multimode microplate reader and HTRF ratios were calculated under manufacturer's instructions. The percent of activation of compounds treated wells were normalized between vehicle control and low control. Then the data were analyzed using a 4-parameter logistic model to calculate IC50 values.

For assay [2], the target named is GDP-loaded HIS-KRAS(G12D, aa 1-169) (Homo sapiens (Human), UniProt P01116, G12D). The assay is described as follows: SOS1 catalyzed nucleotide exchange assay. It is filed as biochemical. To be noted: TR-FRET; 1.5 nM GDP-loaded HIS-KRAS(G12D), 0.5 μM SOS1 ExD, 4 hours at 25° C. Here is the method:
GDP-loaded HIS-KRAS(G12D, aa 1-169) was pre-incubated with a compound in the presence of 10 nM GDP in a 384-well plate (Greiner) for 15 min, then purified SOS1 ExD(Flag tag, aa 564-1049), BODIPY™ FL GTP (Invitrogen) and MAb(monoclonal antibody) Anti 6HIS-Tb cryptate Gold (Cisbio) were added to the assay wells (Final concentration: 1.5 nM GDP-loaded HIS-KRAS(G12D), 5 nM GDP, 0.5 μM SOS1 ExD, 80 nM BODIPY™ FL GTP, 52.5 ng/mL MAb Anti 6HIS-Tb cryptate Gold) and incubated for 4 hours at 25° C. Wells containing same percent of DMSO served as vehicle control, and wells without KRAS served as low control. TR-FRET signals were read on Tecan Spark multimode microplate reader. The parameters were F486: Excitation 340 nm, Emission 486 nm, Lag time 100 μs, Integration time 200 μs; F515: Excitation 340 nm, Emission 515 nm, Lag time 100 μs, Integration time 200 μs. TR-FRET ratios for each individual wells were calculated by equation: TR-FRET ratio=(Signal F515/Signal F486)*10000. The percent of activation of compounds treated wells were normalizedbetween vehicle control and low control. Then the data were analyzed using a 4-parameter logistic model to calculate ICso values.
A general note: In TR-FRET formats the signal depends on donor and acceptor labels being close together.

Chain of GDP-loaded HIS-KRAS(G12D, aa 1-169) (P01116 other isoform, or with tags, fused parts or gaps G12D): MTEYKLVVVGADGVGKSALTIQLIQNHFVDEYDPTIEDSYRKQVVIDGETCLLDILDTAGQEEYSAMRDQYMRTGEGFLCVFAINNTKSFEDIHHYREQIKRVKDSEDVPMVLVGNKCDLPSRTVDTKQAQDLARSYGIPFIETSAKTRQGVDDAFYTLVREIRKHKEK
Chain of GppNp-loaded HIS-KRAS(G12D, aa 1-169) / cRAF RBD (P01116 other isoform, or with tags, fused parts or gaps G12D): as above

In general, IC50 refers to the midpoint of a concentration-inhibition curve. High values mean weaker potency, low ones greater potency. On to `CN(C)CC1(COc2nc3c4c(c(Cl)c(-c5cc(O)cc6ccccc56)cc4n2)OC[C@@H]2CNCCN32)CC1` [Compound 1], for which the IC50 in assay [1] was 31400 nM; in assay [2], 3860 nM.
The matching figures for `Oc1cc(-c2cc3nc(OC[C@@]45CCCN4C[C@H](F)C5)nc4c3c(c2Cl)OC[C@H]2CNCCN42)c2ccccc2c1` [Compound 3]: 11600 nM and 294 nM.
For `C#Cc1c(F)ccc2cc(O)cc(-c3c(Cl)c4c5c(nc(OC[C@@]67CCCN6C[C@H](F)C7)nc5c3F)N3C[C@H]5CC[C@H](N5)[C@H]3CO4)c12` (atropisomer, axis not shown) [Compound 12], in that order: 154 nM and 35.8 nM.
For `C#Cc1c(F)ccc2cc(O)cc(-c3nc4c5c(nc(OC[C@@]67CCCN6C[C@H](F)C7)nc5c3F)N3C[C@@H]5CC[C@@H](N5)[C@H]3CO4)c12` [Compound 9], in that order: 2240 nM and 81 nM.
Consider `C#Cc1cccc2cc(O)cc(-c3cc4c5c(nc(OCC6(CN7CCOCC7)CC6)nc5c3F)N3[C@@H]5CN[C@@H](C5)[C@@H]3CO4)c12` [Compound 15], for which the results for the IC50 in assay [1] and in assay [2] were 251 nM and 11 nM, respectively.
For `C#Cc1cccc2cc(O)cc(-c3cc4c5c(nc(OCC6(CN7CCOCC7)CC6)nc5c3F)N3C[C@H]5CC[C@H](N5)[C@H]3CO4)c12` [Compound 5], in that order: 20.5 nM and 1.16 nM.
For `C#Cc1cccc2cc(O)cc(-c3cc4c5c(nc(OCC6(CN7CCOCC7)CC6)nc5c3F)N3[C@H]5CN[C@H](C5)[C@@H]3CO4)c12` [Compound 16], in that order: 660 nM and 86.1 nM.
The matching figures for `C#Cc1c(F)ccc2cc(O)cc(-c3c(Cl)c4c5c(nc(OC[C@@]67CCCN6C[C@H](F)C7)nc5c3F)N3C[C@H]5CC[C@H](N5)[C@H]3CO4)c12` (atropisomer, axis not shown) [Compound 13]: 4.8 nM and 0.691 nM.
For `CN(C)CC1(COc2nc3c4c(c(Cl)c(-c5cc(O)cc6ccccc56)cc4n2)OC[C@H]2CNCCN32)CC1` [Compound 2], the IC50 in assay [1] was determined as 23300 nM; in assay [2], 880 nM.
The matching figures for `C#Cc1c(F)ccc2cc(O)cc(-c3cc4c5c(nc(OCC6(CN7CCOCC7)CC6)nc5c3F)N3C[C@H]5CC[C@H](N5)[C@H]3CO4)c12` [Compound 14]: 9.2 nM and 1.15 nM.
For `C#Cc1cccc2cc(O)cc(-c3cc4c5c(nc(OCC6(CN7CCOCC7)CC6)nc5c3F)N3C[C@H]5CC[C@H](N5)[C@@H]3CO4)c12` [Compound 4], in that order: 378 nM and 2.5 nM.
The matching figures for `C#Cc1c(F)ccc2cc(O)cc(-c3cc4c5c(nc(OC[C@@]67CCCN6C[C@H](F)C7)nc5c3F)N3C[C@H]5CC[C@H](N5)[C@H]3CO4)c12` [Compound 10]: 5.4 nM and 0.452 nM.
Turning to `C#Cc1c(F)ccc2cc(O)cc(-c3nc4c5c(nc(OCC6(CN7CCOCC7)CC6)nc5c3F)N3C[C@H]5CC[C@H](N5)[C@H]3CO4)c12` [Compound 7], the IC50 came out at 9.8 nM in assay [1] and 0.659 nM in assay [2].
In the case of `C#Cc1cccc2cc(O)cc(-c3cc4nc(OC[C@@]56CCCN5C[C@H](F)C6)nc5c4c(c3Cl)OC[C@@H]3[C@@H]4CC[C@H](CN53)N4)c12` [Compound 11], the IC50 in assay [1] was found to be 184 nM; in assay [2] it was 7.24 nM.
For `C#Cc1c(F)ccc2cc(O)cc(-c3nc4c5c(nc(OC[C@@]67CCCN6C[C@H](F)C7)nc5c3F)N3C[C@H]5CC[C@H](N5)[C@H]3CO4)c12` [Compound 6], in that order: 3.9 nM and 0.23 nM.
For `C#Cc1c(F)ccc2cc(O)cc(-c3nc4c5c(nc(OC[C@@]67CCCN6C[C@H](F)C7)nc5c3F)N3C[C@@H]5CC[C@@H](N5)[C@@H]3CO4)c12` [Compound 8], in that order: 280 nM and 32.6 nM.
